Consider two compounds from publication PMC8583417, “Evaluation of the Antimicrobial Efficacy of N-Acetyl-L-Cysteine, Rhamnolipids, and Usnic Acid—Novel Approaches to Fight Food-Borne Pathogens” (International Journal of Molecular Sciences, 2021).

For experiment [1], the system named is S. aureus 816. Description: CLSM analysis, biofilm prevention. The class given is cell-based, Staphylococcus aureus. The note with it: for Thickness (µm) MICBM80 / Thickness (µm) subCBM80: 24 h exposure; for Thickness (µm) MICBM80: substance at its MICBM80, mean ± SD; for Thickness (µm) subCBM80: substance at subinhibitory concentration, mean ± SD. As for the experimental part: Biofilm prevention and removal analyses were performed using previously determined minimum inhibitory and subinhibitory concentrations for metabolic activity (MICBM80, subCBM80; MICMPB80, subCMPB80) of NAC, RLs, and UA specific for each tested strain. Selected concentrations were used to evaluate the inhibition of biofilm formation (biofilm prevention) and the reduction in previously formed biofilms (biofilm removal) for the same set of microorganisms, with the exception of S. Infantis, which was excluded from the analysis due to its inability to form biofilm in the selected microtiter plate. Biofilm prevention and removal were observed using CLSM with specific staining to distinguish between live and membrane-compromised cells. Images were analyzed to evaluate (i). the total volume of the biomass, (ii). ratios of live and membrane-compromised cells, and (iii). to calculate biofilm volume reduction for individual organisms after the respective treatment types. The total biofilm volume was normalized by the area of the well and expressed as an average biofilm thickness. Complete data are provided in Supplementary Materials (Tables S1–S8).
For both inhibition and reduction of biofilms, overnight cultures from BHI were diluted in TSB + 1% Glc to reach an absorbance of 0.08 to 0.1 at 625 nm. The inoculum (150 µL) was transferred into wells of the 96-well flat-bottomed Ibidiμ-Plate (Ibidi, Gräfelfing, Germany) and mixed with 150 µL of each of the three tested substances in technical quadruplicates, followed by incubation at 37 °C for 24 h. Simultaneously, the prepared bacterial suspensions were inoculated to an additional microtiter plate (200 µL) and allowed to form biofilm overnight (18 h at 37 °C). After the incubation, the content of the well was drained off, and 200 µL of each of the three tested substances was added to the plate, which was then incubated for an additional 20 h. The used concentrations of the substances represented the subinhibitory and minimum inhibitory concentrations for metabolic activity (subCBM80, MICBM80; subCMPB80, MICMPB80). Both setups contained a positive control of the bacterial growth (inoculum mixed with sterile TSB + 1% Glc medium) and a control monitoring microbial contamination (sterile medium). Non-treated wells were used as a positive control for comparison between non-treated and treated biofilm mass.
Prior to the imaging, the wells were stained with the LIVE/DEAD® BacLight™ Bacterial Viability Kit (Thermo Fisher Scientific, MA, USA) following the manufacturer’s guidelines and Drago et al.. Briefly, equal volumes of SYTO® 9 and propidium iodide were combined with the sterile distilled water to reach a final concentration of […]. The biofilm mass was stained using 300 µL of the staining solution per well followed by incubation at 37 °C in the dark for 15 min. Stained wells were washed once with sterile distilled water, which was then added to each well (300 µL). Images were acquired with an inverted Leica SP5 CLSM using a 1.25× dry objective (WD 3.7 mm, Z-resolution 27 µm, up to 24 Z-stacks per well) to visualize an entire well. Samples were kept at the cultivation conditions (37 °C, 5% CO2, 90% humidity) with an OkoLabs stage top environmental chamber (Oko Labs, PA, USA). Fluorophore excitation lasers and emission bandwidths were as follows: SYTO® 9 (ex/em 485/498 nm) 488 nm excitation, 495 to 550 nm emission collection; propidium iodide (ex/em 535/617 nm) 561 nm excitation, 595 to 650 nm emission collection. The laser beam scanned the visual field at a frequency of 600 Hz. The wells were captured in snapshots of 1024 × 1024 pixels representing the area of 153.76 mm^2.
All collected images were statistically evaluated to quantify biovolume utilizing the surface estimation procedure described in Parker et al.. […]

The next experiment concerns L. monocytogenes 149. The experiment is described as follows: MIC for biofilm formation (crystal violet staining). The class given is cell-based, Listeria monocytogenes. To be noted: ≥80% prevention, 24 h. As for the experimental part:
(§1) Ten concentrations of NAC, RLs, and UA were tested to determine the minimum inhibitory concentration for planktonic growth, and subsequently, the six highest concentrations were applied on preformed biofilms to evaluate the biofilm eradication ability of the compounds. MIC was defined as the lowest substance concentration able to inhibit at least 80% of microbial growth (MICPC80 for planktonic cells, MICBC80 for further growth of biofilm cells), inhibit 80% of metabolic activity (MICBM80 for biofilm metabolic activity, MICMPB80 for metabolic activity of preformed biofilm), prevent biofilm formation by at least 80% (MICBF80 for biofilm formation), or reduce a preformed biofilm by at least 80% (MICBR80 for biofilm reduction). The results of MICs are summarized in Table 1 (planktonic cells) and Table 2 (biofilm-associated cells).
(§2) The determination of MICs was performed according to Chlumsky et al.. Briefly, 96-well flat-bottomed microtiter plates were inoculated with 75 µL (for biofilm formation) or 100 µL (for preformed biofilm) of bacterial suspension (A625nm 0.08 to 0.1) in technical triplicates and were then carefully mixed with the dilution series of the test substances (24 h cultivation at 25 °C for S. Infantis, 37 °C for other strains) or were directly cultivated to preform biofilms (18 h). For a positive control of bacterial growth, the inoculum was mixed with a pure sterile medium. […] To evaluate planktonic cells growth (MICPC80) and further growth of biofilm cells (MICBC80), the optical density of the content of the microtiter plates was measured spectrophotometrically at 625 nm before and after 24 h (for biofilm formation) of cultivation or before and after additional 20 h incubation with the tested compound (for preformed biofilm). […] To evaluate the inhibition of biofilm formation (MICBF80) and reduction in preformed biofilms (MICBR80), biomass was quantified using crystal violet staining, and its metabolic activity (MICBM80 and MICMPB80) was estimated by using the MTT (thiazyl tetrazolium bromide, Sigma-Aldrich, USA) reduction assay, both measured spectrophotometrically at 595 nm.
(§3) All inhibitions were calculated using the formula of Chlumsky et al. below (Equation (1)):(1) A625(595)nm inhibition (%)=A625(595)nm (control) – A625(595)nm(natural substance)/A625(595)nm (control)× 100 where A625(595)nm (control) is the absorbance of bacterial suspension/biofilm itself, and A625(595)nm(natural substance) is the absorbance of the bacterial suspension/biofilm with the added natural substance (NAC, RLs, and UA).
(§4) When the minimum inhibitory concentration could not be determined, the MIC was established as >the highest tested concentration for NAC, RLs, and UA.

For another experiment, the system named is L. monocytogenes 164. Described as above. The format is cell-based, Listeria monocytogenes. The note with it: ≥80% prevention, 24 h. As for the experimental part:
as §1, §2, §3, §4

The test system of a further experiment is E. coli 693/17. The description is as above. To be noted: for MICBF80: ≥80% prevention, 24 h. The class given is cell-based, Escherichia coli. As for the experimental part: as §1
(§5) The determination of MICs was performed according to Chlumsky et al.. Briefly, 96-well flat-bottomed microtiter plates were inoculated with 75 µL (for biofilm formation) or 100 µL (for preformed biofilm) of bacterial suspension (A625nm 0.08 to 0.1) in technical triplicates and were then carefully mixed with the dilution series of the test substances (24 h cultivation at 25 °C for S. Infantis, 37 °C for other strains) or were directly cultivated to preform biofilms (18 h). For a positive control of bacterial growth, the inoculum was mixed with a pure sterile medium. Furthermore, the sterile medium was included in the plate as a marker of potential microbial contamination. To evaluate planktonic cells growth (MICPC80) and further growth of biofilm cells (MICBC80), the optical density of the content of the microtiter plates was measured spectrophotometrically at 625 nm before and after 24 h (for biofilm formation) of cultivation or before and after additional 20 h incubation with the tested compound (for preformed biofilm). The difference of A625nm was considered as a measure of the ability of cells to grow in the presence of the tested substances. To evaluate the inhibition of biofilm formation (MICBF80) and reduction in preformed biofilms (MICBR80), biomass was quantified using crystal violet staining, and its metabolic activity (MICBM80 and MICMPB80) was estimated by using the MTT (thiazyl tetrazolium bromide, Sigma-Aldrich, USA) reduction assay, both measured spectrophotometrically at 595 nm.
as §3, §4

The next experiment has as its system S. aureus 1241. Description: MIC for metabolic activity of preformed biofilm (MTT reduction assay). The class given is cell-based, Staphylococcus aureus. To be noted: ≥80% inhibition, 20 h with substance. As to the method: as §1, §5, §3, §4
A general note: Tetrazolium dyes change colour on reduction, which living cells bring about.

In experiment [2] the test system is S. aureus 816. The description is as above. The format is cell-based, Staphylococcus aureus. To be noted: for MICMPB80: ≥80% inhibition, 20 h with substance. As for the experimental part: as §1, §5, §3, §4

SMILES strings stand for the structures.

Take `CC(=O)c1c(O)c(C)c(O)c2c1OC1=CC(=O)C(C(C)=O)C(=O)C12C` (single isomer, unassigned; (+)) [UA, (+)-usnic acid]: the “proportion of membrane-compromised cells” value in the experiment on S. aureus 816 [1] (24 h, MIC and subinhibitory concentration) is recorded as “up to 15%”. In addition, the “Thickness (µm) MICBM80” value with S. aureus 816 [1] stood at 237 ± 41.9 µm. Moreover, the “Thickness (µm) subCBM80” value in the experiment with S. aureus 816 [1] was 270 ± 21 µm. Further, the MICBF80 against L. monocytogenes 149 is reported as 0.98 µg/mL; against L. monocytogenes 164, 1.96 µg/mL; against E. coli 693/17 it was more than 31.3 µg/mL. Besides, in the experiment with E. coli 693/17 (within tested concentrations), the “maximal achieved inhibition (MICBF80 not reached)” value stood at 47%. Also, the figures for the MICMPB80 against S. aureus 1241 and against S. aureus 816 [2] were 3.91 µg/mL and more than 31.3 µg/mL, respectively. In the experiment on S. aureus 816 [2] (within tested concentrations), the “maximal achieved inhibition (MICMPB80 not reached)” value is listed as 67%.
Consider `CC(=O)N[C@@H](CS)C(=O)O` [NAC, N-Acetyl-L-cysteine], for which the “Thickness (µm) MICBM80” value in the experiment on S. aureus 816 [1] came out at 104 ± 67.8 µm. The “Thickness (µm) subCBM80” value in the experiment with S. aureus 816 [1] is listed as 181 ± 57.7 µm. Also, the MICBF80 with L. monocytogenes 149, with L. monocytogenes 164 and in the experiment with E. coli 693/17 was 6250 µg/mL each time. Also, the MICMPB80 against S. aureus 1241 is on record as 6250 µg/mL; with S. aureus 816 [2], 12,500 µg/mL.
